Patent US20250381110A1, “SKIN CARE COMPOSITION AND METHOD OF USING THE SAME” (THE PROCTER & GAMBLE COMPANY, priority 2024, published 2025)
Counter-ions that a name gives are not always drawn. Like-named read-outs stand apart in the source and are kept apart here.

Test system: p62-dependent mitophagy
Experiment: Luciferase-p62 assay (Fluc-p62 clearance) in mouse embryonic fibroblasts
Format: cell-based
Description: To identify p62-dependent materials which increase mitophagy, a Luciferase-p62 Assay was established. This method provides an approach to measure the ability of a material to modulate p62-dependent mitophagy by using an inducible firefly luciferase-p62 (Fluc-p62) reporter cell system. In this assay, p62 levels are driven by doxycycline treatment. After levels increased, expression of Fluc-p62 is turned off by removal of doxycycline, materials are then added and assessed for how they affect clearance of Fluc-p62 protein, which is proportionate to cellular mitophagy rates (Kelly et al.). The negative control is doxycycline induced Luc-p62 in the absence of compound or bioactive material treatment and in the presence of vehicle (DMSO).
Test materials including bioactive materials were screened in mouse embryonic fibroblasts (MEFs, Harada et al.) expressing the TET-inducible p62-fluc construct as previously described (Brown et al.). […] Gibson assembly was used to insert firefly luciferase (Fluc) and p62 into the pCW57.1 backbone. Fluc, p62, and pCW57.1 were polymerase chain reaction (PCR) amplified using pfu polymerase (Life technologies) and Gibson assembly primers with 20 base pair (bp) overhangs. PCR products were separated by agarose gel electrophoreses, and fragments excised and purified before use in DNA assembly reaction with NEBuilder HiFi DNA Assembly kit (New England Biolabs). After the assembly, the reaction mix was transformed into NEB3040 Stable Competent Escherichia coli (New England Biolabs). After 24 hours growth at 31 degrees Celsius the plasmid was extracted using QIAprep Spin Miniprep kit (Qiagen). The plasmid was sequenced to confirm correct insertion of Fluc-p62. To generate MEFs stably expressing doxycycline inducible Fluc-p62, HEK293FT cells were transfected with Fluc-p62-pCW57.1 and the ViraPower Packaging Mix (Invitrogen) to produce lentivirus. MEFs were transduced with the obtained lentiviral stock following followed by selection with 1 microgram per milliliter puromycin.Fluc-p62expressing MEFs were maintained in DMEM supplemented with 10 percent fetal bovine serum (FBS), 100 units per milliliter penicillin/streptomycin, and 2 millimolar L-glutamine in a humidified atmosphere containing 5 percent carbon dioxide at 37 degrees Celsius. Cells were plated into white 96 well plates (2,000 cells per well with 100 microliters media) and allowed to settle for 24 hours. […] Subsequently, cells were treated with test materials for 48 hours in normal growth medium and analysed using ONE-Glo™+Tox Luciferase Reporter and Cell Viability Assay (Promega) by following the manufacturer's protocol.
Test compositions and control compositions were prepared as described above in the Luciferase-p62 assay (Method 3) and tested accordingly. The compounds used in this example, as examples of bioactive materials, were from the APExBIO DiscoveryProbe™ Natural Product Library Plus (Houston, TX) and evaluated at equivalent concentrations (10 μM).
Data are additionally calculated as percentage of activity relative to rapamycin, a benchmark control compound tested in the same experiment.

[1] = Luciferase-p62 assay, mouse embryonic fibroblasts (MEFs), compounds at 10 μM
[2] = percentage of Luciferase-p62 clearance relative to baseline (mean luminescence in the absence of doxycycline induction), MEFs, 10 μM
[3] = percentage of activity relative to rapamycin tested in the same experiment at the same concentration, MEFs, 10 μM

| Compound | Mean Luminescence [1] | % Activity over baseline [2] [%] | % Activity relative to Rapamycin [3] [%] | Mean Luminescence | % Activity over baseline (10 µM) [%] | % Activity relative to Rapamycin (10 µM) [%] |
| --- | --- | --- | --- | --- | --- | --- |
| COc1c(C)c2c(c(O)c1C/C=C(\C)CCC(=O)OCCN1CCOCC1)C(=O)OC2 [Mycophenolate Mofetil] | 594.21 | 63.28 | 114.01 | – | – | – |
| CC(=O)O[C@H]1C(=O)[C@@]2(C)[C@H]([C@H](OC(=O)c3ccccc3)[C@]3(O)C[C@H](OC(=O)[C@H](O)[C@@H](NC(=O)c4ccccc4)c4ccccc4)C(C)=C1C3(C)C)[C@]1(OC(C)=O)CO[C@@H]1C[C@@H]2O [Compound 7-Epitaxol] | 968.61 | 40.14 | 72.32 | – | – | – |
| NCCCNCCCCNCCCN [Spermine] | 720.40 | 55.48 | 99.96 | – | – | – |
| COc1nc2ccc(Br)cc2cc1[C@@H](c1ccccc1)[C@@](O)(CCN(C)C)c1cccc2ccccc12 [Bedaquiline] | 802.99 | – | – | – | – | – |
| Nc1ccc(O)cc1 [Compound 4-Aminophenol, 4-Aminophenol] | 482.45 | 70.18 | 126.45 | – | – | – |
| CNC[C@H](O)[C@@H](O)[C@H](O)[C@H](O)CO.CNC[C@H](O)[C@@H](O)[C@H](O)[C@H](O)CO.C[C@@H](O[C@H]1OCCN(Cc2nn(P(=O)(O)O)c(=O)[nH]2)[C@H]1c1ccc(F)cc1)c1cc(C(F)(F)F)cc(C(F)(F)F)c1 [Fosaprepitant dimeglumine salt] | 756.54 | 53.24 | 95.93 | – | – | – |
| C=CCCC(=O)O [4-Pentenoic acid] | 936.28 | 42.14 | 75.92 | – | – | – |
| CN[C@@H]1[C@H](O)[C@H](NC)[C@H]2O[C@@]3(O)C(=O)C[C@@H](C)O[C@H]3O[C@@H]2[C@H]1O [Spectinomycin dihydrochloride] | 953.21 | 41.09 | 74.04 | – | – | – |
| Bacitracin Zinc | 919.94 | 43.15 | 77.74 | – | – | – |
| Oc1cc(O)cc(/C=C/c2ccc(O)cc2O)c1 [Oxyresveratrol] | 403.74 | 75.05 | 135.22 | – | – | – |
| COC(=O)/C=C/C(=O)OC [Dimethyl Fumarate] | 786.79 | 51.38 | 92.57 | – | – | – |
| O[C@H]1[C@H](O)[C@@H](O)[C@H](O)[C@@H](O)[C@H]1O [myo-Inositol] | 670.16 | 58.58 | 105.55 | – | – | – |
| CC1=C[C@]23C(=O)[C@@H](C=C(CO)[C@@H](O)[C@]2(O)[C@H]1O)[C@H]1[C@@H](C[C@H]3C)C1(C)C [Ingenol] | 930.73 | 42.48 | 76.54 | – | – | – |
| O=C(/C=C/c1ccc(O)cc1)CC(=O)/C=C/c1ccc(O)cc1 [Bisdemethoxycurcumin] | 355.33 | 78.04 | 140.61 | – | – | – |
| Cl.NCCc1ccc(O)c(O)c1 [Dopamine HCl] | – | – | – | 995.96 | 38.45 | 69.28 |
| COc1cc2c(cc1OC)[C@@H](Cc1ccc(O)c(Oc3cc4c(cc3OC)CCN(C)[C@@H]4Cc3ccc(O)cc3)c1)N(C)CC2 [Liensinine] | 923.21 | 42.94 | 77.38 | – | – | – |

| Compound | Mean Luminescence [1] | % Activity over baseline [2] [%] | % Activity relative to Rapamycin [3] [%] | Mean Luminescence | % Activity over baseline (10 µM) [%] | % Activity relative to Rapamycin (10 µM) [%] |
| --- | --- | --- | --- | --- | --- | --- |
| CCOC(=O)O[C@]1(C(=O)OCCl)CC[C@H]2[C@@H]3CCC4=CC(=O)C=C[C@]4(C)[C@H]3[C@@H](O)C[C@@]21C [Loteprednol etabonate] | 214.82 | 86.72 | 156.26 | – | – | – |
| CC(=O)[C@H]1CC[C@H]2[C@@H]3CC=C4C[C@@H](O)CC[C@]4(C)[C@H]3CC[C@]12C [Pregnenolone] | 870.09 | 46.23 | 83.29 | – | – | – |
| CC(Cc1ccc(O)c(O)c1)C(C)Cc1ccc(O)c(O)c1 (stereo not shown) [Nordihydroguaiaretic acid] | 964.84 | 40.37 | 72.74 | – | – | – |
| C[C@@H]1CC[C@@]2(OC1)O[C@H]1C[C@H]3[C@@H]4CC=C5C[C@@H](O)CC[C@]5(C)[C@H]4CC[C@]3(C)[C@H]1[C@@H]2C [Diosgenin] | 903.89 | 44.14 | 79.53 | – | – | – |
| C[C@]12CC[C@@H]3c4ccc(O)cc4CC[C@H]3[C@@H]1C[C@@H](O)[C@@H]2O [Estriol] | 784.74 | 51.50 | 92.80 | – | – | – |
| COC(=O)[C@H]1[C@H]2C[C@@H]3c4[nH]c5cc(OC)ccc5c4CCN3C[C@H]2C[C@@H](OC(=O)c2cc(OC)c(OC)c(OC)c2)[C@@H]1OC [Reserpine] | 915.14 | 43.44 | 78.27 | – | – | – |
| NC[C@H]1O[C@H](O[C@H]2[C@H](O)[C@@H](O[C@H]3O[C@H](CO)[C@@H](O)[C@H](N)[C@H]3O)[C@H](N)C[C@@H]2N)[C@H](N)C[C@@H]1O [Tobramycin] | 971.48 | 39.96 | 72.00 | – | – | – |
| OC[C@H]1O[C@H](OCC2O[C@@H](O)[C@H](O)[C@@H](O)[C@@H]2O)[C@H](O)[C@@H](O)[C@H]1O (stereo partly shown) [Melibiose] | 715.78 | 55.76 | 100.47 | – | – | – |
| O=C(O)CC(O)C(=O)O (stereo not shown) [Malic acid] | 962.28 | 40.53 | 73.03 | – | – | – |
| O=C1CC[C@H](C(=O)O)N1 [D-Pyroglutamic acid] | 938.93 | 41.97 | 75.63 | – | – | – |
| CO/N=C1\C[C@]2(C[C@@H]3C[C@@H](C/C=C(\C)C[C@@H](C)/C=C/C=C4\CO[C@@H]5[C@H](O)C(C)=C[C@@H](C(=O)O3)[C@]45O)O2)O[C@H](/C(C)=C/C(C)C)[C@H]1C [Moxidectin] | 476.19 | 70.57 | 127.15 | – | – | – |
| CO/N=C(\C(=O)N[C@@H]1C(=O)N2C(C(=O)OC(C)OC(C)=O)=C(COC(N)=O)CS[C@H]12)c1ccco1 (stereo partly shown) [Cefuroxime axetil] | 958.52 | 40.76 | 73.44 | – | – | – |
| O=C(O[C@@H]1O[C@@H]2COC(=O)c3cc(O)c(O)c(O)c3-c3c(cc(O)c(O)c3O)C(=O)O[C@H]([C@H]1O)[C@@H]2O)c1cc(O)c(O)c(O)c1 [Corilagin] | 985.42 | 39.10 | 70.45 | – | – | – |
| CN(C)CCn1nnnc1SCC1=C(C(=O)O)N2C(=O)[C@@H](NC(=O)Cc3csc(N)n3)[C@H]2SC1 [Cefotiam hydrochloride] | 993.62 | 38.59 | 69.54 | – | – | – |
| O=C(CCc1ccc(O)cc1)c1c(O)cc(O)cc1O [Phloretin] | 912.42 | 43.61 | 78.58 | – | – | – |
